According to article PMC10803289, “Transport and inhibition mechanism of the human SGLT2–MAP17 glucose transporter” (Nature Structural & Molecular Biology, 2023):
Where “and” joins values, the source holds several entries; their conditions need not be identical. Identical values can stand only once. Like-named read-outs stand apart in the source and are kept apart here.

Experiments:
hSGLT2 S74A [1] = target: T1, hSGLT2 S74A (Homo sapiens, UniProt P31639, S74A); assay type: cell-based
T1 construct: expressed in transfected cells; host or cells: Expi293 cells, crude membrane fraction

hSGLT2 F98A = target: T2, hSGLT2 F98A (Homo sapiens, UniProt P31639, F98A); experiment: α-MG uptake in HEK293 cells, F98A mutant; assay type: cell-based; design: expressed in transfected cells
T2 sequence (P31639 1-672 F98A): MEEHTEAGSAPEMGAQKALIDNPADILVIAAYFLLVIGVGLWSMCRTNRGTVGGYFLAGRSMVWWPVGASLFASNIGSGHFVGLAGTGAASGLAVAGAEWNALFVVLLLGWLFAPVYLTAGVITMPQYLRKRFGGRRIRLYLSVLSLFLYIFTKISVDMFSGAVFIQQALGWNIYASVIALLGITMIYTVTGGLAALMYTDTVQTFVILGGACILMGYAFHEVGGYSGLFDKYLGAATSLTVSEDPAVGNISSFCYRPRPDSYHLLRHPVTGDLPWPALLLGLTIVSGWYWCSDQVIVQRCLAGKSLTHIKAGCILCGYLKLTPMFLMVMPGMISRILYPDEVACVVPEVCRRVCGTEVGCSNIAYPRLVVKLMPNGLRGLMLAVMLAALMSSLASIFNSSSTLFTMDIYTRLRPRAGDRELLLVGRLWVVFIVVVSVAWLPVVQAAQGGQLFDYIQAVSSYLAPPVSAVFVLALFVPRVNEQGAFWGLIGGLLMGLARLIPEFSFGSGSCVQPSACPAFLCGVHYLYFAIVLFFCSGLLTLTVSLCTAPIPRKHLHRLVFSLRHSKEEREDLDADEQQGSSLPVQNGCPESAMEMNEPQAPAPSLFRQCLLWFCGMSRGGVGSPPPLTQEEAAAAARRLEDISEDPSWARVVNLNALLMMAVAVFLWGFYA
T2 sequence (Q13113 1-114 partner): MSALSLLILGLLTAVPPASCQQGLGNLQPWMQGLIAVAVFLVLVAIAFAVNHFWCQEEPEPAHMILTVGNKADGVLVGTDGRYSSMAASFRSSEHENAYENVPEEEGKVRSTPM
Source text: (§1) hSGLT2 complementary DNA and human MAP17 cDNA were synthesized and codon-optimized for expression in human cell lines. Both cDNAs were cloned into the pcDNA3.4 vector. The hSGLT2 sequence was fused with an N-terminal signal sequence from human trypsinogen 1, a His10 tag, and sfGFP, followed by a human rhinovirus 3C protease (HRV3C protease) recognition site. Point mutations were introduced into this construct using site-directed mutagenesis. These plasmids were utilized for all experimental procedures conducted in this study.
HEK293 cells (ECACC 85120602) were maintained in Dulbecco’s modified Eagle medium (Gibco) supplemented with 10% fetal bovine serum (Thermo Scientific), 2 mM L-glutamine, 100 U ml^−1 benzylpenicillin and 100 µg ml^−1 streptomycin at 37 °C in a humidified atmosphere (5% CO2 in air). HEK293 cells were seeded at 1.0 × 10^5 cells per well in poly-L-lysine coated 24-well plates. The cells in each well were transiently transfected with 0.25 µg hMAP17 plasmid and 0.50 µg hSGLT2 plasmid using Lipofectamine 2000 (Life Technologies) and cultured for 48 h. […] After preincubation, uptake was initiated by replacing the preincubation buffer with extracellular fluid buffer containing 500 μM α-MG in the absence or presence of inhibitors. Uptake was completed by removing the uptake buffer and washing with ice-cold buffer three times, followed by solubilization in 1 N NaOH at room temperature.
Cell lysates were deproteinized by adding acetonitrile containing candesartan as the internal standard. The α-MG concentration was quantified via liquid chromatography–tandem mass spectrometry (LC–MS/MS) using the internal standard method.
Cellular protein content was determined using a bicinchoninic acid protein assay kit (Thermo Fisher Scientific). The uptake of α-MG was expressed as the ratio of concentration in the cells (in pmol per mg protein) to concentration in the medium (in pmol μl^−1); this is known as the cell-to-medium ratio (in μl per mg protein).
In the inhibition study, the cell-to-medium ratio of cells transfected with the empty vector was used as the background. The specific α-MG uptake was calculated by subtracting this background from the total cell-to-medium ratio and normalized to the uptake achieved without the inhibitor. IC50 was calculated via nonlinear regression using GraphPad Prism 8.4.3.
The concentrations of the extract solution from the filter plate and of the cell lysate were quantified using a tandem mass spectrometry QTRAP6500 System (SCIEX) coupled with an ACQUITY UPLC system (Waters) using the internal standard method. Mobile phases A and B used 10 mM of ammonium bicarbonate and acetonitrile, respectively.

[2] = test system: β-glucosidase in the intestine; design: method as in PMID 21358697; details: O-glucoside hydrolyzed by β-glucosidase in the intestine; cited from earlier work
hSGLT2 S74A [3] = target: T1, hSGLT2 S74A; assay type: binding; details: S74A
Source text: as §1
To examine the inhibition of binding to the crude membrane, mammalian Expi293 cells were co-transfected with the hMAP17 and hSGLT2 plasmids, as described. The cells were collected and disrupted by sonication in a hypotonic buffer (50 mM HEPES–NaOH (pH 7.5), 10 mM KCl and protease inhibitor cocktail) or Na^+-free hypotonic buffer (50 mM Tris–HCl (pH 7.5), 10 mM KCl and protease inhibitor cocktail). The cell debris were removed by centrifugation (2,000g, 5 min, 4 °C). The membrane fraction was collected by ultracentrifugation (112,000g, 30 min, 4 °C) and stored at −80 °C before use. […] The extract solution from the filter plate was diluted with water containing candesartan as an internal standard, and the SGLT2 inhibitor concentration was quantified via LC–MS/MS.
Nonspecific binding was measured using the crude membrane of nontransfected Expi293 cells. Specific binding was calculated by subtracting nonspecific binding from the binding of hSGLT2-expressing cells. Specific binding was normalized to hSGLT2 protein expression levels, measured via FSEC. The equilibrium dissociation constant (Kd) and maximum number of binding sites (Bmax) were calculated via nonlinear regression in GraphPad Prism 8.4.3. […]
The concentrations of the extract solution from the filter plate and of the cell lysate were quantified using a tandem mass spectrometry QTRAP6500 System (SCIEX) coupled with an ACQUITY UPLC system (Waters) using the internal standard method. […]

SGLT2 = test system: SGLT2; design: method as in literature; details: referee comment in peer review file; ref literature; cited from earlier work

T1 sequence (P31639 whole entry S74A, one chain of several): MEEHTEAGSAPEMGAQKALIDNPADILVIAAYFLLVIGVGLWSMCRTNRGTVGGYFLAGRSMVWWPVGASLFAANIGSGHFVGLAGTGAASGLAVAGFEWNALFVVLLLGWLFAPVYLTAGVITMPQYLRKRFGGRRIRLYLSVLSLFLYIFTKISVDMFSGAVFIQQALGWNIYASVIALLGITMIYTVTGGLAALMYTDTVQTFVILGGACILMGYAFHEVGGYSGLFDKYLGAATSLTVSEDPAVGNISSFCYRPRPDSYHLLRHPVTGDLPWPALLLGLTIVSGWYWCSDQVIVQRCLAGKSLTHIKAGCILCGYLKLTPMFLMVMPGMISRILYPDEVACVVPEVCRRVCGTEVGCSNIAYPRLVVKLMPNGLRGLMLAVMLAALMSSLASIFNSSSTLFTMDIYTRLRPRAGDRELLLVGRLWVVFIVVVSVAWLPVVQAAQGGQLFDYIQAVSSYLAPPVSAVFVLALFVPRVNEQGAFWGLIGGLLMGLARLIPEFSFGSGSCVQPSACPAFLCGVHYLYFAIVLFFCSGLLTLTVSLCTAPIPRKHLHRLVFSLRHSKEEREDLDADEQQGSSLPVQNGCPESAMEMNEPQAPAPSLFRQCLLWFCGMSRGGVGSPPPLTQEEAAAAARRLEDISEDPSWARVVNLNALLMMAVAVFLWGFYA

O=C(CCc1ccc(O)cc1)c1c(O)cc(O)cc1O[C@@H]1O[C@H](CO)[C@@H](O)[C@H](O)[C@H]1O [Phlorizin]
α-MG uptake (% of control) (hSGLT2 S74A [1]; Phlorizin 0.3 nM): 98.3 % of control and 109.0 % of control and 132.4 % of control | α-MG uptake (% of control) (hSGLT2 S74A [1]; Phlorizin 1 nM): 94.4 % of control and 116.6 % of control and 114.8 % of control | α-MG uptake (% of control) (hSGLT2 S74A [1]; Phlorizin 3 nM): 99.5 % of control and 109.8 % of control | α-MG uptake (% of control) (hSGLT2 S74A [1]; Phlorizin 10 nM): 92.0 % of control and 68.8 % of control | α-MG uptake (% of control) (hSGLT2 S74A [1]; Phlorizin 30 nM): 76.5 % of control and 90.7 % of control | α-MG uptake (% of control) (hSGLT2 S74A [1]; Phlorizin 100 nM): 51.6 % of control and 68.4 % of control | α-MG uptake (% of control) (hSGLT2 S74A [1]; Phlorizin 300 nM): 32.7 % of control and 25.1 % of control | remaining activity at 0.3 µM (hSGLT2 F98A; HEK293, Phlorizin 300 nM, read-out: α-MG uptake (% of control)): 80.5% | α-MG uptake (% of control) (hSGLT2 F98A; Phlorizin 0.3 nM): 115.8 % of control and 94.2 % of control and 155.8 % of control | α-MG uptake (% of control) (hSGLT2 F98A; Phlorizin 3 nM): 76.0 % of control and 88.8 % of control and 126.1 % of control | α-MG uptake (% of control) (hSGLT2 F98A; Phlorizin 10 nM): 79.6 % of control and 104.3 % of control and 76.0 % of control | α-MG uptake (% of control) (hSGLT2 F98A; Phlorizin 30 nM): 103.1 % of control and 103.4 % of control and 128.4 % of control | α-MG uptake (% of control) (hSGLT2 F98A; Phlorizin 100 nM): 135.2 % of control and 89.8 % of control and 99.6 % of control | α-MG uptake (% of control) (hSGLT2 F98A; Phlorizin 300 nM): 69.6 % of control and 82.5 % of control | metabolic stability [2]: poor | Bmax1 (hSGLT2 S74A [3]; phlorizin, mean ± SEM n=3): 1.16 ± 0.07 pmol/mg-protein

Cc1ccc([C@@H]2O[C@H](CO)[C@@H](O)[C@H](O)[C@H]2O)cc1Cc1ccc(-c2ccc(F)cc2)s1 [Canagliflozin]
IC50 (SGLT2): ~2.7 nM | Canagliflozin binding (% of WT) (hSGLT2 S74A [3]; 30 nM canagliflozin, replicates): 75.2559 % of WT and 78.5839 % of WT and 93.2268 % of WT

CO[C@H]1O[C@H](CO)[C@@H](O)[C@H](O)[C@H]1O [α-MG, α-methyl-D-glucopyranoside]
α-MG uptake (hSGLT2 S74A [1]; Fig. 3h): 27.75 μL/mg-protein and 30.77 μL/mg-protein and 34.71 μL/mg-protein | α-MG uptake (hSGLT2 F98A; Fig. 3h): 55.68 μL/mg-protein and 75.98 μL/mg-protein and 85.61 μL/mg-protein
